One block for each compound: values may come before it.
What was measured:
Assay in all cases: biochemical
Set-up in all cases: KINOMEscan (DiscoverX) competition binding screen of 97 human kinases, percent of control at 10 uM
ACVR1B = ACVR1B (Homo sapiens, UniProt P36896)
Method: (§1) The KINOMEscan profiling of the inhibitors were performed as per directions by the manufacturer (DiscoverX) against a panel of human protein kinases.

AKT1 = AKT1 (Homo sapiens, UniProt P31749)
Method: as §1

AURKA = AURKA (Homo sapiens, UniProt O14965)
Method: as §1

DCAMKL1 = molecular target: T1, DCAMKL1 (Homo sapiens, UniProt O15075)
T1 construct: gene DCLK1
T1 sequence (O15075 whole entry): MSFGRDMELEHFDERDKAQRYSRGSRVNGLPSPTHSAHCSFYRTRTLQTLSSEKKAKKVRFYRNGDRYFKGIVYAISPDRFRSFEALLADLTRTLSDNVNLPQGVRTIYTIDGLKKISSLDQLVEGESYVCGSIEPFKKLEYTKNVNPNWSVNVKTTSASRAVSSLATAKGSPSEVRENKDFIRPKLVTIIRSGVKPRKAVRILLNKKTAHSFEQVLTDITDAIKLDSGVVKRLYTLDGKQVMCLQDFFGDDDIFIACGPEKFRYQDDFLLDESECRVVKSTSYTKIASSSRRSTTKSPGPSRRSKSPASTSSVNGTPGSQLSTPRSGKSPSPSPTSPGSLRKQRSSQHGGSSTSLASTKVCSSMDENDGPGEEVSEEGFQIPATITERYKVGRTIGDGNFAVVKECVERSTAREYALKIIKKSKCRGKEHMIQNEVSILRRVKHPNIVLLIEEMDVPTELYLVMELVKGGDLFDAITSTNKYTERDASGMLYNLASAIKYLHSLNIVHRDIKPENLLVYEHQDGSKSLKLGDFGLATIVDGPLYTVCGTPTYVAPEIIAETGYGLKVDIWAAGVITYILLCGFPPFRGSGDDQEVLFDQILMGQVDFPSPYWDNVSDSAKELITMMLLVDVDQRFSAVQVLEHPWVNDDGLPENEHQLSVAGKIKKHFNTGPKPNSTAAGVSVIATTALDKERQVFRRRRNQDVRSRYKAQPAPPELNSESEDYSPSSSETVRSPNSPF
Method: as §1

ERBB4 = ERBB4 (Homo sapiens, UniProt Q15303)
Method: as §1

ERK1 = molecular target: T2, ERK1 (Homo sapiens, UniProt P27361)
T2 construct: gene MAPK3
Method: as §1

FGFR2 = FGFR2 (Homo sapiens, UniProt P21802)
FGFR2, sequence (P21802 whole entry): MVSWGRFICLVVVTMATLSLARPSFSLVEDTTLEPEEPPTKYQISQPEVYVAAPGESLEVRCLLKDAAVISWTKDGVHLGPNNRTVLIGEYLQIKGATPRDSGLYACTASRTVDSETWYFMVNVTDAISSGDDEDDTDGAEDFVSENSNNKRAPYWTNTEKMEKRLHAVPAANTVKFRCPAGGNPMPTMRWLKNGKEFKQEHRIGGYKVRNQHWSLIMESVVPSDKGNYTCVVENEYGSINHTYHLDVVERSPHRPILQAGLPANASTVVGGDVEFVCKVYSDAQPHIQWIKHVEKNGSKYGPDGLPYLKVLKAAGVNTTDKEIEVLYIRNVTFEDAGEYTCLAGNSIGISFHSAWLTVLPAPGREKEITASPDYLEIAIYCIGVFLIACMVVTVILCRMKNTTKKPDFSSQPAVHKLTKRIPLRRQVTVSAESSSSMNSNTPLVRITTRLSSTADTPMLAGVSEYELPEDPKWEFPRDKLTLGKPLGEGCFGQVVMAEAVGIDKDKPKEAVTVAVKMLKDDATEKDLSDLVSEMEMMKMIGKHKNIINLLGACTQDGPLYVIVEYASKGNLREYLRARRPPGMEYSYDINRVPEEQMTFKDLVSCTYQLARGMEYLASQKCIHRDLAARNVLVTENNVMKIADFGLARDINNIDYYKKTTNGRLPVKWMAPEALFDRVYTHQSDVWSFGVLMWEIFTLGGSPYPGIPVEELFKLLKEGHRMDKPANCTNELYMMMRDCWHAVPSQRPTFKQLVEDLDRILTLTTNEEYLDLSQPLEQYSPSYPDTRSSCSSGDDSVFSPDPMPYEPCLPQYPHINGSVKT
Method: as §1

IKK-beta = molecular target: T3, IKK-beta (Homo sapiens, UniProt O14920)
T3 construct: gene IKBKB
Method: as §1

[1] = molecular target: T4, JAK2(JH1domain-catalytic) (Homo sapiens, UniProt O60674)
T4 construct: JH1domain-catalytic
Method: as §1

KIT(V559D,T670I) = KIT(V559D,T670I) (Homo sapiens, UniProt P10721, T670I/V559D)
Method: as §1

MET = MET (Homo sapiens, UniProt P08581)
Method: as §1

MKNK1 = MKNK1 (Homo sapiens, UniProt Q9BUB5)
Method: as §1

MKNK2 = MKNK2 (Homo sapiens, UniProt Q9HBH9)
Method: as §1

MLK1 = molecular target: T5, MLK1 (Homo sapiens, UniProt P80192)
T5 construct: gene MAP3K9
T5 sequence (P80192 whole entry): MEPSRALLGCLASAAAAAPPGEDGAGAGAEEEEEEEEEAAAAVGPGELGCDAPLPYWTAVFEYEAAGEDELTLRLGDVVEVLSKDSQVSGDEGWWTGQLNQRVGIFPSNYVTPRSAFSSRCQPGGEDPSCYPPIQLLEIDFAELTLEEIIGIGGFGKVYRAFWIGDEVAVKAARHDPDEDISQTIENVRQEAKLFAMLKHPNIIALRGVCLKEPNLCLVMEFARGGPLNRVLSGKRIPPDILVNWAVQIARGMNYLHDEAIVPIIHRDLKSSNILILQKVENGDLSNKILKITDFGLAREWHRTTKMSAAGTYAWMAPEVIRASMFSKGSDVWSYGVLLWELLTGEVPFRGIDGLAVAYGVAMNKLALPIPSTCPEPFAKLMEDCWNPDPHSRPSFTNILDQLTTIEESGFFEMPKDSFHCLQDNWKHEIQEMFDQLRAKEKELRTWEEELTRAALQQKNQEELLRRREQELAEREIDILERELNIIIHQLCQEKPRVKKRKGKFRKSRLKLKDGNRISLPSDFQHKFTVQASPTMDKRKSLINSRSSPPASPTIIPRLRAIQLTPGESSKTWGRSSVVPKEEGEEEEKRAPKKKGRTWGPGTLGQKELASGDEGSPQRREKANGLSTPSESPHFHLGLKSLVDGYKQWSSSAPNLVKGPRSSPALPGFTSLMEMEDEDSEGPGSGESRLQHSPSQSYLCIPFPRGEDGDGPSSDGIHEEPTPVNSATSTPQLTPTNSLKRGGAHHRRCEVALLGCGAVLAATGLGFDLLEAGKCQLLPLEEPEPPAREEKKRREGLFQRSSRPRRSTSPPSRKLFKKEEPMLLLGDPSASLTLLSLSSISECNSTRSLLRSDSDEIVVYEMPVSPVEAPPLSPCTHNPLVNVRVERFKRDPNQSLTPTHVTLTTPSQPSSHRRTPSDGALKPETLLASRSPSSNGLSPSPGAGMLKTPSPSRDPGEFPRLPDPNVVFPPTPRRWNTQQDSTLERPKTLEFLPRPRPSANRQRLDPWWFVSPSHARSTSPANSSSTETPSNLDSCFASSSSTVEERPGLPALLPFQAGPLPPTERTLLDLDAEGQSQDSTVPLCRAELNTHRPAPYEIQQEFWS
Method: as §1

PAK4 = PAK4 (Homo sapiens, UniProt O96013)
Method: as §1

PDGFRA = PDGFRA (Homo sapiens, UniProt P16234)
Method: as §1

PIM1 = PIM1 (Homo sapiens, UniProt P11309)
PIM1, sequence (P11309 whole entry): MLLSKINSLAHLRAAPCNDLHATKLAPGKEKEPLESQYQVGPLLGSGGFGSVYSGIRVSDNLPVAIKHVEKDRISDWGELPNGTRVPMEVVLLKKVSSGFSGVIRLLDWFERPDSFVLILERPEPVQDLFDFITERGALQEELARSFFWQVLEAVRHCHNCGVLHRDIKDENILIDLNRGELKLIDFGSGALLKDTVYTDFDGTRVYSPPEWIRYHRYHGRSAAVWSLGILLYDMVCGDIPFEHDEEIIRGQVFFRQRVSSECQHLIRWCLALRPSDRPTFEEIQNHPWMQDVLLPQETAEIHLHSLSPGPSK
Method: as §1

PKAC-alpha = molecular target: T6, PKAC-alpha (Homo sapiens, UniProt P17612)
T6 construct: gene PRKACA
Method: as §1

PRKCE = PRKCE (Homo sapiens, UniProt Q02156)
PRKCE, sequence (Q02156 whole entry): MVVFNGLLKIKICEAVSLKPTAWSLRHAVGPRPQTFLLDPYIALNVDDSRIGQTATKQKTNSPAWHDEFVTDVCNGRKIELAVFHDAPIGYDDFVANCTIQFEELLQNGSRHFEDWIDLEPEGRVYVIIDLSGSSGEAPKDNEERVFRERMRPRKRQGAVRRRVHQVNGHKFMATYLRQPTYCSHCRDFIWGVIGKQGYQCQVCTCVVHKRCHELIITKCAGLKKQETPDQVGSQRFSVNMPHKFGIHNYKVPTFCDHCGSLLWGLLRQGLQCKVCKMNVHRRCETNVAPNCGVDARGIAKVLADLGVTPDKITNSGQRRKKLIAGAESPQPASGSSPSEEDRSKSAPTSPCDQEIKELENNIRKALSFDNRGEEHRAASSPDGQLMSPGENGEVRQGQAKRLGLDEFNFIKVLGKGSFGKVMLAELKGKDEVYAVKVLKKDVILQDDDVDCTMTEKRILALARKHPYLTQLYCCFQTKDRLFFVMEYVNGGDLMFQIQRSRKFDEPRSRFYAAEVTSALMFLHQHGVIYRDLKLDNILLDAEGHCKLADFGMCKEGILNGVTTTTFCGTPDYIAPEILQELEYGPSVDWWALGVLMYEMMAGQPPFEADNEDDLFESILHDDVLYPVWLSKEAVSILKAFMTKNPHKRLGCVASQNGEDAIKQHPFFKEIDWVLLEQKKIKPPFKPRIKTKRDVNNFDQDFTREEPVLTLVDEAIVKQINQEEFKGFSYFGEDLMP
Method: as §1

[2] = molecular target: T7, RSK2(Kin.Dom.1-N-terminal) (Homo sapiens, UniProt P51812)
T7 construct: gene RPS6KA3; Kin.Dom.1-N-terminal
Method: as §1

SNARK = molecular target: T8, SNARK (Homo sapiens, UniProt Q9H093)
T8 construct: gene NUAK2
Method: as §1

YANK3 = molecular target: T9, YANK3 (Homo sapiens, UniProt Q86UX6)
T9 construct: gene STK32C
T9 sequence (Q86UX6 whole entry): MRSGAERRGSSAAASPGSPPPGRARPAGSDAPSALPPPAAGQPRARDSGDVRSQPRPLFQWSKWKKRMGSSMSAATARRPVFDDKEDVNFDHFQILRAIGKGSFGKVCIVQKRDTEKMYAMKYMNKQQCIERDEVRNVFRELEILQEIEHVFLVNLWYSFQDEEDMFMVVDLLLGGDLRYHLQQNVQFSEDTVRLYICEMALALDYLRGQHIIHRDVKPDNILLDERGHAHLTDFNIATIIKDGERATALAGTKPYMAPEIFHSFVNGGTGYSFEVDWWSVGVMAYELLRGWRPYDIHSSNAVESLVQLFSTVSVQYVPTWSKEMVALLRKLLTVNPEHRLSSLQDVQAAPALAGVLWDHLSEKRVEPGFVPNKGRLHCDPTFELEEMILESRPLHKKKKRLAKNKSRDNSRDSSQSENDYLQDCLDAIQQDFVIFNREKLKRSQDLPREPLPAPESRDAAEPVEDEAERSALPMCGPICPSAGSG
Method: as §1

p38-beta = molecular target: T10, p38-beta (Homo sapiens, UniProt Q15759)
T10 construct: gene MAPK11
Method: as §1

[3] = read-out: R428 %Ctrl @ 10000nM, binding competition
[4] = binding competition, % of control, read-out: RU-301 %Ctrl @ 10000nM

ACVR1B, sequence (P36896 whole entry): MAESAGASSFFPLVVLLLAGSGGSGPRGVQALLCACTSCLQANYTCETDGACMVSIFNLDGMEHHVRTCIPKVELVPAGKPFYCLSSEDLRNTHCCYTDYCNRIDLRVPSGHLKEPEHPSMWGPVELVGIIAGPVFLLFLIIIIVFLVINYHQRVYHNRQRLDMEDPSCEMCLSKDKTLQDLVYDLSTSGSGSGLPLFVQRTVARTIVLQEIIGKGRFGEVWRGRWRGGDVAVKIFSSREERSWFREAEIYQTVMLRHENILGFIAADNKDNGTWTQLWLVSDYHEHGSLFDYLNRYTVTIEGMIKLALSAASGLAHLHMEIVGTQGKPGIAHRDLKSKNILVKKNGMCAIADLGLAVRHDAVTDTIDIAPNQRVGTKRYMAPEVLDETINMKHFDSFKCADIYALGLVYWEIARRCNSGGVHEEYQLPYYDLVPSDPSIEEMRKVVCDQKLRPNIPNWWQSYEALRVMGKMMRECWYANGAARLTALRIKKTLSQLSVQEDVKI

percent of control binding at 10 µM (ACVR1B; [3]): 26%
percent of control binding at 10 µM (AKT1; [3]): 100%
percent of control binding at 10 µM (AURKA; [3]): 0.15%
percent of control binding at 10 µM (DCAMKL1; [3]): 98%
percent of control binding at 10 µM (ERBB4; [3]): 34%
percent of control binding at 10 µM (ERK1; [3]): 100%
percent of control binding at 10 µM (FGFR2; [3]): 30%
percent of control binding at 10 µM (IKK-beta; [3]): 4.8%
percent of control binding at 10 µM [1, 3]: 0%
percent of control binding at 10 µM (KIT(V559D,T670I); [3]): 0.05%
percent of control binding at 10 µM (MET; [3]): 9.4%
percent of control binding at 10 µM (MKNK1; [3]): 19%
percent of control binding at 10 µM (MKNK2; [3]): 0%
percent of control binding at 10 µM (MLK1; [3]): 2.2%
percent of control binding at 10 µM (PAK4; [3]): 85%
percent of control binding at 10 µM (PDGFRA; [3]): 1.4%
percent of control binding at 10 µM (PIM1; [3]): 67%
percent of control binding at 10 µM (PKAC-alpha; [3]): 48%
percent of control binding at 10 µM (PRKCE; [3]): 24%
percent of control binding at 10 µM [2, 3]: 2.1%
percent of control binding at 10 µM (SNARK; [3]): 0.65%
percent of control binding at 10 µM (YANK3; [3]): 100%
percent of control binding at 10 µM (p38-beta; [3]): 84%
Compound: Nc1nc(Nc2ccc3c(c2)CC[C@@H](N2CCCC2)CC3)nn1-c1cc2c(nn1)-c1ccccc1CCC2 [R428]

remaining binding at 10 µM (ACVR1B; [4]): 96%
remaining binding at 10 µM (AKT1; [4]): 88%
remaining binding at 10 µM (AURKA; [4]): 89%
remaining binding at 10 µM (DCAMKL1; [4]): 81%
remaining binding at 10 µM (ERBB4; [4]): 83%
remaining binding at 10 µM (ERK1; [4]): 100%
remaining binding at 10 µM (FGFR2; [4]): 100%
remaining binding at 10 µM (IKK-beta; [4]): 100%
remaining binding at 10 µM [1, 4]: 87%
remaining binding at 10 µM (KIT(V559D,T670I); [4]): 85%
remaining binding at 10 µM (MET; [4]): 88%
remaining binding at 10 µM (MKNK1; [4]): 78%
remaining binding at 10 µM (MKNK2; [4]): 100%
remaining binding at 10 µM (MLK1; [4]): 100%
remaining binding at 10 µM (PAK4; [4]): 93%
remaining binding at 10 µM (PDGFRA; [4]): 99%
remaining binding at 10 µM (PIM1; [4]): 82%
remaining binding at 10 µM (PKAC-alpha; [4]): 90%
remaining binding at 10 µM (PRKCE; [4]): 91%
remaining binding at 10 µM [2, 4]: 74%
remaining binding at 10 µM (SNARK; [4]): 100%
remaining binding at 10 µM (YANK3; [4]): 100%
remaining binding at 10 µM (p38-beta; [4]): 100%
Compound: Cc1cc(CSc2ccccc2C(=O)NCCNc2ccc(C(F)(F)F)cc2[N+](=O)[O-])on1 [RU-301]

Source: article PMC5341070, “Small molecule inhibitors block Gas6-inducible TAM activation and tumorigenicity” (Scientific Reports, 2017)
